Reference: US8906953B2, “Pyrrolidine substitute flavones for the treatment of inflammatory disorders” (Piramal Enterprises Limited, priority 2010, dated 2014)
pIC50: −log10 of the molar value. Like-named read-outs stand apart in the source and are kept apart here.

Experiments:
TNF-α = experiment: LPS-induced TNF-α release from hPBMCs (ELISA); format: cell-based; conditions: Homo sapiens
Protocol: Cytokine production by lipopolysaccharides (LPS) in hPBMCs (human peripheral blood mononuclear cells) was measured as in reference, Physiol. Res. 2003, 52, 593-598, the disclosure of which is incorporated by reference for the teaching of the assay. Blood was collected from healthy donors into Potassium EDTA vacutainer tubes (BID vacutainer). The PBMC were isolated using gradient centrifugation in Histopaque-1077 solution (Sigma). Isolated PBMC were suspended in RPMI 1640 (Rosewell Park Memorial Institute) culture medium (Sigma-Aldrich Fine Chemicals, USA) containing 10% fetal bovine serum (FBS) (JRH, USA), 100 U/mL penicillin (Sigma Chemical Co. St Louis, Mo., USA) and 100 μg/mL streptomycin (Sigma Chemical Co. St Louis, Mo.). The cell concentration was adjusted to 1×10^6 cells/mL. The viability as determined by trypan blue dye exclusion was uniform Ly≧98%. The cell suspension (100 μL) was added to the wells of a 96-well culture plate. Following cell plating, 79 μL of the culture medium and 1 μL of various concentrations of test compounds (compounds of formula 1) (final concentration 0.001, 0.003, 0.005, 0.01, 0.025, 0.03, 0.05, 0.1, 0.25, 0.3 and 1 μM) dissolved in DMSO (dimethyl sulfoxide, Sigma, Mo., USA) were added to the cells. The final concentration of DMSO was adjusted to 0.5%. The vehicle (0.5% DMSO) was used as control. […] The plates were incubated for 30 minutes at 37° C. in an atmosphere of 5% CO2. Finally, 20 μL (10 μg/mL) per well of LPS, (Escherchia coli 0127:B8, Sigma Chemical Co., St. Louis, Mo.) was added to the wells of the incubated plates, for a final concentration of 1 μg/mL. The plates were incubated at 37° C. for 5 hours in an atmosphere of 5% CO2. […] Supernatants were harvested and assayed for TNF-α, IL-1β, IL-6 and IL-8 by ELISA as described by the manufacturer. (OptiEIA ELISA sets, BD Biosciences, Pharmingen). The 50% inhibitory concentration (IC50) values were calculated by a nonlinear regression method using GraphPad software (Prism 3.03).

IL-8 = experiment: LPS-induced IL-8 release from hPBMCs (ELISA); format: cell-based; conditions: Homo sapiens
Protocol: Cytokine production by lipopolysaccharides (LPS) in hPBMCs (human peripheral blood mononuclear cells) was measured as in reference, Physiol. Res. 2003, 52, 593-598, the disclosure of which is incorporated by reference for the teaching of the assay. Blood was collected from healthy donors into Potassium EDTA vacutainer tubes (BID vacutainer). The PBMC were isolated using gradient centrifugation in Histopaque-1077 solution (Sigma). Isolated PBMC were suspended in RPMI 1640 (Rosewell Park Memorial Institute) culture medium (Sigma-Aldrich Fine Chemicals, USA) containing 10% fetal bovine serum (FBS) (JRH, USA), 100 U/mL penicillin (Sigma Chemical Co. St Louis, Mo., USA) and 100 μg/mL streptomycin (Sigma Chemical Co. St Louis, Mo.). The cell concentration was adjusted to 1×10^6 cells/mL. The viability as determined by trypan blue dye exclusion was uniform Ly≧98%. The cell suspension (100 μL) was added to the wells of a 96-well culture plate. Following cell plating, 79 μL of the culture medium and 1 μL of various concentrations of test compounds (compounds of formula 1) (final concentration 0.001, 0.003, 0.005, 0.01, 0.025, 0.03, 0.05, 0.1, 0.25, 0.3 and 1 μM) dissolved in DMSO (dimethyl sulfoxide, Sigma, Mo., USA) were added to the cells. The final concentration of DMSO was adjusted to 0.5%. The vehicle (0.5% DMSO) was used as control. […]

PDE4 = PDE4 inhibition, cAMP fluorescence assay in salbutamol-stimulated U937 cells; format: cell-based, human; conditions: for Relative Fluorescence (RF): U937 cells, salbutamol 1 μM
Protocol: Culture medium was changed every 2-3 days and always 24 hours before harvest. RPMI medium, FBS and Salbutamol were purchased from Sigma-Aldrich (USA). Rolipram was synthesized in the Medicinal Chemistry Department, Piramal Life Sciences Limited.
Rolipram was used as a standard (0.3, 1 and 3 μM). […] Fluorescence measurements were taken with Polarstar Optima (BMG Labtech-Germany).
Relative fluorescence was calculated using the following formula where: RF=Relative Fluorescence, Fo=fluorescent intensity of the blank or buffer control, F=fluorescence of cAMP or sample: RF=(Fo−F)/Fo
A standard curve was plotted using the RF values of the given standards and the values of cAMP corresponding to the test compounds were determined using the standard plot.

[1] = system: synovial fluid mononuclear cells (SFMC); experiment: Induction of apoptosis in synovial fluid mononuclear cells (Annexin-V/PI); format: cell-based, human; conditions: adherent and non-adherent SFMC from RA patients, 5 μM and 10 μM, 24 hours
Protocol: The assay was designed as in reference, Arthritis and Rheumatism, Vol. 52, No. 1, January 2005, the disclosure of which is incorporated herein by reference for the teaching of the assay.
Synovial fluid was collected from rheumatoid arthritis patients under going knee aspiration. The fluid was collected in vacutainers and processed within 2 hours of collection. SFMC were isolated using gradient centrifugation using Ficoll-Hypaque solution (Sigma). Isolated SFMC were suspended in RPMI 1640 (Rosewell Park Memorial Institute) culture medium (Sigma-Aldrich Fine Chemicals, USA) containing 20% fetal bovine serum (FBS) (JRH, USA), 100 U/ml penicillin (Sigma Chemical Co. St Louis, Mo.) and 100 μg/mL streptomycin (Sigma Chemical Co. St Louis, Mo.). The cell concentration was adjusted to 1×10^6 cells/mL. The viability as determined by trypan blue dye exclusion was uniformly >98%. 4 mL of this cell suspension was added to each well of a 6-well plate. The SFMC were incubated for 3-4 hours. Non-adherent cells were removed and cultured separately in 6-well plates. Fresh medium was added to the adherent cells. After 24 hours incubation in a humidified atmosphere at 37° C. in 5% CO2, non-adherent cells were removed and pooled with previous days samples. These cells were plated at a density of 2×10^6 cells/well. The adherent cell population was re-fed fresh complete medium. […]

pIC50 (TNF-α; LPS-induced release from hPBMCs (Table 1A), read-out: IC50 TNF-α): 6.00
pIC50 (TNF-α; LPS-stimulated hPBMCs, 5 hours, read-out: Activity (TNF-α) IC50): 6.00
pIC50 (IL-8): 5.89
Compound: CN1CC[C@@H](c2c(O)cc(O)c3c(=O)cc(-c4ccc(C(F)(F)F)cc4Cl)oc23)[C@@H]1CO.Cl [Compound of example 3, (+)-trans-2-(2-Chloro-4-trifluoromethyl-phenyl)-5,7-dihydroxy-8-(2-hydroxymethyl-1-methyl-pyrrolidin-3-yl)-chromen-4-one hydrochloride]
PDE4 inhibition (conclusion) (PDE4; U937 cells, 1, 3 and 10 μM): not a PDE4 inhibitor
Relative Fluorescence (RF) (PDE4; concentration 1 μM): 0.71
Relative Fluorescence (RF) (PDE4; concentration 3 μM): 0.95
Relative Fluorescence (RF) (PDE4; concentration 10 μM): 0.95
Induction of apoptosis (Annexin-V/PI) [1]: induces apoptosis
